Paper PMC12388496, “Discovery of (E)-1,3-Diphenyl-2-Propen-1-One Derivatives as Potent and Orally Active NLRP3 Inflammasome Inhibitors for Colitis” (Molecules, 2025)

Experiments:
BMDM cells [1] = assay: Flow cytometry apoptosis assay kit (pyroptosis) in BMDM cells under LPS/Nigericin; format: cell-based, mouse; settings: vs LPS/Nigericin group, more pronounced at higher concentrations
Source text: Pyroptosis is a form of programmed cell death, typically triggered by the activation of inflammasomes within the cell. It is characterized by the rupture of the cell membrane, releasing cellular contents (such as Lactate Dehydrogenase, LDH), which enhances the inflammatory response. Unlike apoptosis, pyroptosis is initiated through the activation of inflammasomes, involving distinct molecular mechanisms, and is often accompanied by cell swelling and rupture. In contrast, apoptosis is triggered by the activation of Caspase-3, leading to systemic degradation within the cell while maintaining the integrity of the cell membrane. The cell undergoes controlled self-degradation without provoking an immune response. […]
Figure 4 F14 inhibits NLRP3 inflammasome activation, leading to cell pyroptosis. […] All values given are best readings. / LPS/Nigericin: Q1-UL 0.83%, Q1-UR 79.53%, Q1-LL 14.81%, Q1-LR 4.83% uncertain / F14 10 μM: Q1-UL 0.52%, Q1-UR 48.44%, Q1-LL 45.87%, Q1-LR 5.17% uncertain / F14 5 μM: Q1-UL 1.05%, Q1-UR 58.47%, Q1-LL 36.16%, Q1-LR 4.32% uncertain / F14 2.5 μM: Q1-UL 0.97%, Q1-UR 69.26%, Q1-LL 24.69%, Q1-LR 5.08% uncertain / The Control plot in panel A (Q1-UL 0.83%, Q1-UR 24.77%, Q1-LL 69.90%, Q1-LR 4.49%) is left out because it is not a substance. / LPS/Nigericin is the stimulus rather than a test compound. […]

BMDM cells [2] = assay: MitoTracker/MitoSOX staining and ROS detection (DCFH-DA flow cytometry) in BMDMs; format: cell-based, mouse; settings: LPS and Nigericin
Source text: Mitochondrial dysfunction and excessive production of reactive oxygen species (ROS) are key upstream signaling events in the activation of the NLRP3 inflammasome. To investigate whether compound F14 affects mitochondrial damage and ROS production, we performed staining experiments using MitoTracker and MitoSOX, followed by imaging and analysis using a confocal microscope. […] To further verify the effect of F14 on ROS levels, we used flow cytometry to measure intracellular ROS levels in BMDM cells stimulated with Nigericin.
BMDMs were seeded at a density of 1.0 × 10^6 cells per well in a 6-well plate, and the cell treatment was performed as described above. DCFH-DA probe was added to each well at a 1:1000 dilution (prepared in serum-free medium), and the cells were incubated at 37 °C in the dark for 20 min. The cells were gently mixed every 5 min to ensure uniform probe penetration. The cells were washed three times with PBS, and ROS levels were measured using flow cytometry (excitation/emission wavelengths: 488/525 nm).

SMILES: Cc1ccc(C(=O)/C=C/c2cccc(O)c2)c(C)c1 [Compound F14, (E)-1-(2,4-dimethylphenyl)-3-(3-hydroxyphenyl)propyl-2-en-1-one]
- viable cell percentage and late apoptotic cell percentage (BMDM cells [1]): significantly improved
- mitochondrial membrane potential and fluorescence intensity of mitochondrial superoxide anions (BMDM cells [2]; MitoTracker, MitoSOX): no significant improvement
- total ROS levels (BMDM cells [2]; flow cytometry): no significant change
